Target: T1, Tyk2 (Homo sapiens, UniProt P29597)
T1 construct: 450 ng/ml TYK2 KD (Cama Biosciences 08-147 Lot 06CBS-3022D); purchased Cama Biosciences (so in the source)
T1 sequence (P29597 897-1176 limits assumed): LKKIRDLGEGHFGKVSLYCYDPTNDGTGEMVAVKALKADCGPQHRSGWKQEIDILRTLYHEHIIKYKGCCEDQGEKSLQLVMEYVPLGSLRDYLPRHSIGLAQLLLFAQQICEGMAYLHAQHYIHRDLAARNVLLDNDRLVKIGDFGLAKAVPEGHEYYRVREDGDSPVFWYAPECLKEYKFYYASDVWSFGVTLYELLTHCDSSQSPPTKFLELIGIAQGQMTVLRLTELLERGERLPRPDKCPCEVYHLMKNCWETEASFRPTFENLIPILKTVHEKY
Experiment: Tyk2 HTRF Assay
Assay type: biochemical
Description: The following is an example of an assay that can be used to determine the Tyk2 inhibitory activity of a test compound.
25 μl/well DMSO is added to Columns 2 and 14 (except 28.5 μl is added to well P14 of Greiner 384-well polypropylene plate). 20 μl/well DMSO is added to all remaining wells.
5 mM compound solutions are added by addition of 5 μl of 30 mM compound to 25 μl DMSO in Columns 2 and 14 of plate. 1.5 mM reference control is prepared by addition of 1.5 μl of 30 mM JAK3 Inhibitor VI to 28.5 μl DMSO in Well P14.
Serial dilution is then performed by the following steps: (i) Compounds in Column 2 are mixed by pipetting 20 μl up and down 6X; (ii) 10 μl/well compounds in DMSO are transferred from one column to the next column for Columns 2-11; (iii) wells are mixed by pipetting 20 μl up and down 6×; (iv) tips are washed 3×25 μl DMSO, 2×25 μl next DMSO; (v) steps i-iv repeated for Columns 14-23.
The following buffers are prepared:
Assay Buffer: 50 mM HEPES pH 7.6; 1 mM DTT; 10 mM MgCl2; 0.01% Triton X100; 0.01% BSA; and 0.1 mM EDTA.
Kinase in Assay Buffer: 450 ng/ml TYK2 KD (Cama Biosciences 08-147 Lot 06CBS-3022D).
Substrate/Detection Mixture (1×ATP) in Assay Buffer: 188 nM DyLight 647-Streptavidin (Pierce 21824); 5 μM Biotin-EQEDEPEGDYFEWLE (Lyn Substrate Peptide); 750 ng/ml Eu-anti-phospho-Tyrosine (PerkinElmer AD0069); 62.5 μM ATP; 80 nM Substrate Peptide (American Peptide Company 332722).
Substrate/Detection Mixture (20×ATP) in Assay Buffer: 188 nM DyLight 647-Streptavidin; 5 μM Biotin-EQEDEPEGDYFEWLE; 750 ng/ml Eu-anti-phospho-Tyrosine; 1250 μM ATP; 80 nM Substrate Peptide.
14.5 μl/well Enzyme Mix or Dilution Buffer (Background Controls) is added to Costar 384 well black plates.
Compound addition and mixture is performed by the following steps: (i) 0.5 μl/well DMSO/compounds in DMSO is transferred from Greiner 384-well polypropylene plate to a plate containing 14.5 μl/well Enzyme Mix and Dilution Buffer; (ii) mixed by pipetting 10 μl up and down 4×; (iii) tips are washed 4×10 μl in DMSO, 2×20 μl in other DMSO; (iv) steps i-iii are repeated until all plates are completed.
10 μl/well Substrate/Detection Mixtures is added and incubated at room temperature 2 hours (on shaker for first 2+ minutes).
10 μl/well 50 mM EDTA/0.01% Triton X100 is added and incubated >15 minutes at room temperature (on shaker for first 2+ minutes).
Plates are read at 665 nm and 620 nm emission on Analyst GT protocol HTRF_SP_A (Counts= 665/620×10000).

IC50: 20.1 to 30 µM
Compound: NC(=O)c1nc(-c2cccnc2)nc2c1[nH]c(=O)n2[C@H]1CC[C@H](O)CC1 [Compound 50, 9-(trans-4-Hydroxycyclohexyl)-8-oxo-2-(pyridin-3-yl)-8,9-dihydro-7H-purine-6-carboxamide]

From patent US7968556B2, “Heteroaryl compounds, compositions thereof, and methods of treatment therewith” (Signal Pharmaceuticals, LLC, priority 2006, dated 2011)
